Measured values as given in ChEMBL document CHEMBL1136333, “A novel series of histone deacetylase inhibitors incorporating hetero aromatic ring systems as connection units” (Bioorg Med Chem Lett, 2003).

Columns and labels:
cells = assay type: functional; conditions: Homo sapiens, MDA435
HT-1080 [1] = assay: Antiproliferative activity against human HT1080 fibrosarcoma cell line at a dose of 50 uM; assay type: functional
[2] = molecular target: Histone deacetylase (HDAC1 and HDAC2) (Homo sapiens, UniProt Q13547+Q92769); assay: Inhibitory activity against histone deacetylase (HDAC1 and HDAC2) isolated from K562 erythroleukemia cells; assay type: cell-based
HT-1080 [3] = assay: Antiproliferative activity against human HT1080 fibrosarcoma cell line; assay type: functional, cell-based
[4] = Antiproliferative activity against human MDA-435 breast carcinoma cell line at a dose of 50 uM; assay type: functional

SMILES | IC50 (cells) [nM] | IC50 [2] [nM] | IC50 (HT-1080 [3]) [nM] | inhibition at 50 µM (HT-1080 [1]) [%] | inhibition at 50 µM [4] [%]
O=C(CCCCCCc1nc(-c2ccc(OC(F)(F)F)cc2)cs1)NO | 2040 | 74 | – | 100 | –
O=C(CCCCCCCc1ccccc1)NO | – | 560 | – | – | –
COc1ccc(-c2cnc(CCCCCCC(=O)NO)o2)cc1 | 2520 | 2.1 | 310 | – | –
O=C(CCCCCCc1cnc(-c2ccc(Br)cc2)o1)NO | – | 4.4 | 27000 | – | 97
COc1ccc(-c2csc(CCCCCCC(=O)NO)n2)cc1 | 2970 | 2.5 | 3630 | – | –
O=C(CCCCCCOc1ccccc1)NO | – | 330 | – | – | –
O=C(CCCCCCc1cnc(-c2ccc(OC(F)(F)F)cc2)o1)NO | 20400 | 89 | 5140 | – | –
O=C(CCCCCCc1ncc(-c2ccc(-c3ccc(Cl)cc3)cc2)o1)NO | 950 | 6.8 | 660 | – | –
O=C(CCCCCCc1ccc(-c2ccccc2)cc1)NO | – | 58 | – | – | –
O=C(CCCCCCc1nc(-c2ccc(-c3ccccc3)cc2)cs1)NO | 1950 | 11 | 1320 | – | –
CNC(=O)C(=O)CCCCCCc1cnc(-c2ccc(Br)cc2)o1 | – | 30 | – | – | –
CNC(=O)C(=O)CCCCCCc1cnc(-c2ccccc2)s1 | – | 47 | – | – | –
O=C(CCCCCCc1ncc(-c2ccccc2)o1)NO | 2200 | 9.8 | 8410 | – | –
O=C(CCCCCCc1cnc(-c2ccc(-c3ccccc3)cc2)o1)NO | 98700 | 12 | 15300 | – | –
CNC(=O)C(=O)CCCCCCc1ncc(-c2ccc(OC)cc2)o1 | – | 11 | – | – | –
O=C(CCCCCCc1nc(-c2ccc(Br)cc2)cs1)NO | 8110 | 8.5 | 5680 | – | –
O=C(CCCCCCc1nc(-c2ccc3ccccc3c2)cs1)NO | 850 | 4.3 | 2390 | – | –
O=C(CCCCCCNC(=O)c1ccccc1)NO | – | 1010 | – | – | –

Further lines, with some results ahead:

IC50 (cells) [nM] | IC50 [2] [nM] | IC50 (HT-1080 [3]) [nM] | SMILES | inhibition at 50 µM (HT-1080 [1]) [%] | inhibition at 50 µM [4] [%]
– | 19 | 5070 | O=C(CCCCCCc1nc(-c2ccccc2)cs1)NO | – | 99.7
– | 5.8 | 10100 | O=C(CCCCCCc1nc(-c2cccc(Br)c2)cs1)NO | – | 98.6
850 | 42 | 2390 | O=C(CCCCCCc1nc(-c2ccc(C(F)(F)F)cc2)cs1)NO | – | –
– | 13 | – | O=C(CCCCCCc1cnc(-c2ccccc2)o1)NO | 23 | 6.12
7940 | 23 | – | O=C(CCCCCCc1cnc(-c2ccc(F)cc2)o1)NO | 76 | –
– | 21 | – | CNC(=O)C(=O)CCCCCCc1cnc(-c2ccccc2)o1 | – | –
6700 | 2.7 | 7700 | O=C(CCCCCCc1ncc(-c2ccc(Br)cc2)o1)NO | – | –
2910 | 4.3 | 2000 | COc1cccc(OC)c1-c1csc(CCCCCCC(=O)NO)n1 | – | –
